Measured values reported in a melting point compilation (Tetko et al.; mined from patent text by program, amines drawn as free bases though some values may be those of a salt).

Compound	melting point
CC(C)(C)c1ccc(C2OCC(CO)([N+](=O)[O-])CO2)cc1 (stereo not given)	90 to 92 °C
CCC(CC)c1ccc(Cl)c2nc(Nc3c(C)noc3C)n(CCCCO)c12	150 to 155 °C
CCCCCCCCc1cc2c(s1)NC(=O)CN=C2c1ccccc1Cl	131 to 133 °C
CC(C)NC(=O)Nc1nc(Cc2c(Cl)cccc2Cl)nc(Nc2ccc(C#N)cc2)n1	267 to 268 °C
CCCCc1cnc(-c2ccc(C#N)cc2)nc1	60.9 to 61.8 °C
CNC(=O)[C@@H]1C[C@H](OC)CN1S(=O)(=O)c1ccc(Cl)c(COc2cccc3c(-n4ccnc4)cc(C)nc23)c1Cl	64 °C
O=C(OCc1ccccc1Cl)c1ncn2c1[C@@H]1CCCN1C(=O)c1c(Cl)cccc1-2	192 to 193 °C
Clc1nc(Cl)c2ccsc2n1	116 °C
COc1ccc(N2CCN(C(=O)c3ccccc3C(c3ccc(O)cc3)c3ccc(O)cc3)CC2)cc1	208 to 210 °C
CC(C)c1ccc(N(Cc2cnn(CCO)c2)C(=O)C2CCCc3c(O)cccc32)cc1 (stereo not given)	110 to 114 °C
Cc1ccc(CNCC2(F)CCN(C(=O)c3ccc(F)c(F)c3)CC2)nc1	158 °C
O=C(N(CCCc1c[nH]c2ccccc12)CCOc1cccc2[nH]c(=O)[nH]c12)C(F)(F)F	180 to 181 °C
Oc1ccc2c(-c3cc(F)ccc3F)noc2c1Cl	256 to 257 °C
COc1cc2c(cc1OC)CN(CCCc1ccc(N)cc1)CC2	138 °C
CCN(CC)C(=O)Cc1cc(-c2ccccc2)nc2ccccc12	86 °C
Cc1ccc(S(=O)(=O)NC(C)(C)C(C)C)cc1	80 to 89 °C
C[C@@H](Cn1ncc2ccc3oc(C(N)=O)nc3c21)N=[N+]=[N-]	162 to 164 °C
Fc1ccc(/C=C/C2=CCN(Cc3c[nH]c4ncccc34)CC2)cc1F	208 to 210 °C
COc1ccc(C2=NN(C3CCN(C(=O)CN4CCN(C)CC4)CC3)C(=O)C(C)(C)C2)c2c1OC(C)(C)C2	121 to 123 °C
CCCc1nc2c(N)nc3ccccc3c2n1CCOCCCS(=O)(=O)c1ccccc1C	159 to 160 °C
CCS(=O)(=O)N(C)[C@@H]1c2cc(OCc3ccccc3)ccc2OC(C)(C)[C@H]1O	165 to 167 °C
COc1ccc(-c2ccc(C#N)cn2)cc1-c1nc2cc(C#N)ccc2[nH]1	316 to 319 °C
Cc1ccnc2c1C(=O)c1cc([N+](=O)[O-])ccc1-2	225 to 227 °C
CC(c1oc2ccccc2c(=O)c1-c1cccc(F)c1)n1nc(-c2ccc3cn[nH]c3c2)c2c(N)ncnc21 (stereo not given)	206 to 208 °C
O=C1CCC(c2ccccc2)(c2ccccc2)C2CN(C(Cc3ccccc3)=NCc3cccc(F)c3)CC12 (stereo not given)	156 °C

Compound	melting point
O=C1OCc2c1cc1ccc3c(c1c2-c1ccc(OC(F)(F)F)cc1)OCO3	222 to 225 °C
N#CCc1nnc2n1-c1sc(Cl)cc1C(c1ccccc1Cl)=NC2	217 to 220 °C
COC(=O)c1c(-c2ccncc2)[nH]c(-c2ccncc2)c1C	245 to 247 °C
Cc1ccc(S(=O)(=O)c2c(O)c3ccccc3n(C)c2=O)cc1	191 °C
O=C1c2cccc3cccc(c23)C(O)N1CCN1CCC(Cc2ccccc2)CC1 (stereo not given)	153 to 155 °C
CC(C)(C)NC(=O)NC(Cc1ccccc1)C(O)C(O)C(Cc1ccccc1)NC(=O)NC(C)(C)C (stereo not given)	193 to 196 °C
Cc1cccc(CON2C(C)(C)CC(O)CC2(C)C)c1	66 to 67 °C
CCOC(=O)C(=C(c1ccc(F)cc1)c1ccc(F)cc1)c1nnnn1C	144 to 145 °C
CC(C)N(C(=O)CC=C1CSC(N)=N1)c1ccc(Cl)cc1	145 to 147 °C
CNC(=C[N+](=O)[O-])NCCSCc1cc2ccc(CN(C)C)cc2o1	113 to 114 °C
Cc1nn(-c2cc(C(=O)O)c(Cl)cc2F)c(=O)n1C(F)F	132 to 135 °C
NCCNC(=O)CN1CCC(O)C1=O (stereo not given)	110 to 112 °C
CCOC(=O)c1snnc1C	59 to 61 °C
CSc1nc([C@@H]2C[C@H]2c2nc3ccccc3n2C)cc(-n2nc(C)nc2C)n1 (relative stereo)	157 to 159 °C
COc1ccc(C(=O)Nc2ccccc2)cc1NCc1ccc(F)c(F)c1	150 to 152 °C
CC(=O)N1C=CC(C(C)=O)(c2ccccc2)C=C1	93 to 95 °C
Cc1cc(OCC(O)CNC(C)(C)C)ccc1-c1nc(C(F)(F)F)c[nH]1 (stereo not given)	162 to 164 °C
CC(=O)NCCOC(=O)C(Oc1ccc(F)c(C(F)(F)F)c1)c1ccc(F)cc1 (stereo not given)	100 °C
CSC(C)=NOC(=O)N(C)SN(C)C(=O)ON=C(C)C(C)=NOC(=O)N(C)SN(C)C(=O)ON=C(SC)C(=O)N(C)C	87 to 110 °C
CCOC(=S)c1cnc(Cc2ccccc2)nc1N	117 to 118 °C
CS(=O)(=O)c1ccc(-c2cccn2-c2ccc(Cl)c(Cl)c2)cc1	139 to 142 °C
CC(C)(C)c1cc(C(=O)c2ncco2)cc(C(C)(C)C)c1O	127 to 130 °C
N#CSc1sc(NC(=O)c2cccc(C(F)(F)F)c2)nc1C(F)(F)F	167 to 168 °C
C[C@H]1CNCC[C@@]12OC(=O)c1ccccc12 (racemic)	131 °C
CC(=NOCCCC(=O)O)c1ccc(Cl)cc1	106 to 108 °C

Compound	melting point
O=C1CCC(N2Cc3cc(CNC(=O)Nc4cc(Cl)ccc4Cl)ccc3C2=O)C(=O)N1 (stereo not given)	269 to 271 °C
Cc1ccc(C(=O)NC2CC2)cc1-c1cc2cnc(NC3CCOCC3)nc2n(C)c1=O	239 to 241 °C
CC(=O)c1ccc(N2C(=O)C(=O)N(c3cccc(Cl)c3)C2=O)cc1	148 °C
CCCOC(=O)c1ccc(C(=O)NNC(=O)c2ccc(C(=O)OCCC)cc2)cc1	173 to 175 °C
O=C(O)CCCC1NCC2CCCN3CCCC1C23 (stereo not given)	185 to 187 °C
COc1cc(NCC(O)CO)c([N+](=O)[O-])cc1O (stereo not given)	180 °C
N#Cc1cn(N(CO)c2c(Cl)cc(Cl)cc2Cl)c(=O)[nH]c1=O	> 300 °C
CC(C)c1ccc(Cc2c(N)nc(SCCN3CCNCC3)nc2N)cc1	63 to 64 °C
O=C1NC(=O)C2(C(=O)N(Cc3ccc(Cl)c(Cl)c3)c3ccccc32)N1C(=O)OCc1ccccc1 (stereo not given)	215 to 217 °C
CSc1ccc(-n2c(-c3ccccn3)nc(SC)c(C#N)c2=O)cc1	158 to 161 °C
COC(=O)[C@H](O)[C@@H](NS(=O)(=O)c1c2ccccc2cc2ccccc12)c1ccccc1	98 to 102 °C
Cn1nc(CNC(=O)Nc2ccccc2)nc1NCCCOc1cccc(CN2CCCCC2)c1	120 to 121 °C
CC1CN(c2cc3c(cc2F)c(=O)c(C(=O)O)c2n3C(C)S2)CCN1C (stereo not given)	198 to 201 °C
COc1c(F)c(F)c(N)c2c(=O)c(C(=O)O)cn(Cc3ccccc3)c12	208 to 210 °C
N#Cc1ccccc1OCCc1c[nH]cn1	170 to 171 °C
CSc1ccc2nc[nH]c(=O)c2c1	203 to 204 °C
CCCc1ncc2cc(OC)nc(SC)n12	98 to 100 °C
CNC(=O)N1CCC(Oc2cccc(C(F)(F)F)c2)(c2ccccc2)CC1	124 to 127 °C
Cn1cc(-c2cc3cccnc3[nH]2)c2cc(N)ccc21	247 to 248 °C
Fc1ccc(COc2ccc(CS)cc2)cc1	77 to 80 °C
CNCc1ccc2cc(O)ccc2c1	168 to 169 °C
COc1ccc(-c2[nH]nc3c2C(=O)c2c(NC(=O)NN(C)C)cccc2-3)cc1	> 300 °C
O=C1O[C@@H](COc2cnsn2)CN1c1ccc(C2=CCOCC2)c(F)c1	146 to 148 °C
COC(=O)NC(=N)C(C)C	127 to 130 °C
N#Cc1cc([N+](=O)[O-])ccc1N1CCN(Cc2ccccc2)CC1	124 °C

Compound	melting point
Cc1cc2c(-c3cccc(-c4noc(=S)[nH]4)c3)c(CC(=O)Nc3ccc(F)cc3C(F)(F)F)c(=O)oc2cc1Cl	178 to 180 °C
NC(=O)c1sc2nccc(N3CCCN(c4ccc5c(c4)OCCO5)CC3)c2c1N	104 to 107 °C
O=C1CCc2cc(Cl)cc(Cl)c2C1	90 to 92 °C
Nc1cc(F)ccc1NC(c1ccccc1)c1ccccc1	120 °C
CC1C(O)C(C(C)(C)O)C(=O)N1c1ccc(C#N)c(Cl)c1 (stereo not given)	131 to 132 °C
O=C(NCC(F)(F)F)C1(CCCCc2ccc(NS(=O)(=O)c3ccccc3)cc2)c2ccccc2-c2ccccc21	130 to 132 °C
Cc1oc(-c2ccccc2)nc1COc1ccc2oc(/C=C/CO)cc2c1	145 to 146 °C
O=C(Nc1ccc(F)cc1)NN1CC=CCC1	156 to 157 °C
CC(C)n1nc2cccc([N+](=O)[O-])c2n1	65 to 67 °C
O=C1c2cccc(O)c2NC(O)C2CCCN12 (stereo not given)	155 to 157 °C
O=C(NCCCCC1CCSS1)N1CCSCC1 (stereo not given)	80 to 81 °C
Cc1ccc(O)c(-c2nc(-c3cc(C)ccc3O)n(-c3ccc(C(=O)O)cc3)n2)c1	268 to 269 °C
FC(F)(F)c1ccc(-c2nccc(CBr)n2)cc1	125 °C
CC(C)(CNc1ccc(C2=NNC(=O)CC2)cc1)NCC(O)COc1cc(Cl)ccc1C#N (stereo not given)	160 to 162 °C
CCS(=O)(=O)Nc1c(C)c(C)cc2nc(OC)c(OC)nc12	201 to 203 °C
CC(C)(C)[N+]([O-])=Cc1ccc(OCc2ccccc2)cc1	11 °C
O=[N+]([O-])c1cnc(Oc2cnc3ccccc3c2)c(Cl)c1	123 to 127 °C
CC(C)(CO)C(O)C(Oc1ccc(Cl)cc1)n1cncn1 (stereo not given)	110 to 112 °C
O=CN(O)C(CO)CS(=O)(=O)c1ccc(-c2ccc(Cl)cc2)cc1 (stereo not given)	153 to 154 °C
CCOC(=O)NN=Cc1cn(-c2ccccc2)nc1-c1ccc([N+](=O)[O-])o1	200 to 201 °C
CC(C)(C)OC(=O)N1CCCN(c2ncnc3ccccc23)CC1	55 to 59 °C
COc1ccc2c(c1)Sc1ccc(Cl)cc1C(O)C2 (stereo not given)	100 to 102 °C
O=C(Nc1ccc(Cl)c(Cl)c1)NS(=O)(=O)c1ccccc1	194 to 195 °C
Cc1cccc2cc3c(=O)n([C@@H](C)c4ccccc4)cc(C(=O)O)c3nc12	234 to 235 °C
O=C(OCc1ccccc1)C1CCc2[nH]c3ccccc3c2C1 (stereo not given)	104 to 105 °C
